According to patent US20110104177A1, “HISTONE DEACETYLASE INHIBITORS, COMBINATION THERAPIES AND METHODS OF USE” (THE JOHNS HOPKINS UNIVERSITY, priority 2006, published 2011):
pIC50: −log10 of the molar value.

Assays:
[1] = test system: SFRP1, SFRP2, E-cadherin, CRBP1 genes in MDA-MB-231 cells; experiment: RT-PCR re-expression of silenced tumor suppressor genes in MDA-MB-231 cells; type: cell-based, human
Description: The panels of FIG. 2 are as follows. […] MDA-MB-231 cells were treated with 15 mM NIA or 300 μM SPT for 21 hours, RNA was isolated, and RT-PCR was performed with intron-spanning primers specific for the indicated genes. Control samples in which no reverse transcriptase was added were analyzed separately, and all were negative for amplification of the indicated genes. […] MDA-MB-231 cells were treated with either 50 nM Aza (+), 100 μM SPT (+) or with both Aza and SPT (++), and 34 hours later, RT-PCR was performed for the indicated genes as described in FIG. 2(A). […] MDA-MB-231 cells were treated with either 0, 50, 100, or 120 μM SPT alone for 34 hours, or the treatment was followed by treatment with 300 nM TSA for 3 hours prior to RNA isolation and RT-PCR analysis. […] MDA-MB-231 cells were infected with low titers of virus for shRNA specific for SIRT1. Aza (100 nM) was added 24 hours prior to RNA isolation, and RT-PCR analysis was performed for the genes SFRP 1, SFRP2, and GAPDH as described in FIG. 2(A). […] As shown in the left panel, MDA-MB-231 cells were infected with a control (vec) or mutant SIRT1 virus (HY), and RT-PCR was performed as described in FIG. 2(A). MDA-MB-231 cells were infected with low titers of pBabe or pBabe-SIRT1H363Y retrovirus and subsequently treated with 100 nM Aza for 24 hours or with 300 nM TSA for 3 hours prior to harvest, and RT-PCR was performed.
(§1) Cell culture and retroviral infection. MDA-MB-231, MCF7, HCT116, SW480 RKO, and Phoenix cells (ATCC, Rockville, Md., United States) were cultured in Dulbecco's modified Eagle's medium supplemented with 10% fetal bovine serum and 1% penicillin/streptomycin (Invitrogen, Carlsbad, Calif., United States). Retroviral infection was performed using either single or multiple rounds of infection. Briefly, Phoenix cells were transfected with either pBabe, pBabe-SIRT1H363Y, pSUPERretro, pSUPERretro-SIRT1-RNAi-1-3 (NM_012238 positions 410, 589, and 1091; Oligo Engine, Seattle, Wash., United States) using Lipofectamine 2000 (Invitrogen). After 48 h of transfection, the medium containing retrovirus was collected, filtered, and supplemented with Polybrene prior to infection of target cells (MDA-MB-231, MCF7, or HCT116). Infected cells were either harvested 24-48 hours later or subjected to selection with 2-3 μg/ml puromycin for a week prior to harvest and analysis.
(§2) RNA and protein preparation and analysis. Total RNA was extracted (Invitrogen) according to the manufacturer's instructions and subjected to reverse transcription followed by both quantitative real-time and semi-quantitative polymerase chain reaction. For quantitative real-time analyses, the QuantiTect SYBR Green PCR kit (Qiagen, Valencia, Calif., United States) was used and the amplification conditions consisted of an initial 10-minutes denaturation step at 95° C., followed by 40 cycles of denaturation at 95° C. for 15 s and annealing and extension for 30 seconds and 60 seconds, respectively. A BioRad iCycler was used (BioRad, Hercules, Calif., United States), and for quantitation the comparative cycle threshold (Ct) method was used, normalizing the Ct values for the indicated gene to the Ct values of GAPDH relative to a control sample. For conventional PCR, at least two independent sets of intron-spanning primers were used for the analysis of multiple genes, such as CRBP1, (NM_002899), E-cadherin, (L34545), SFRP1, (BC036503), SFRP2, (BC008666), and Gata-4 (L34357). For Western blots, cells stably expressing RNAi constructs were harvested in 50 mM Tris-HCl, 1% NP-40, 0.25% sodium deoxycholate, 150 mM NaCl, 50 mM sodium fluoride, 1 mM dithiothreitol, 1 mM AEBSF, 1× Complete protease inhibitor cocktail (Roche, Basel, Switzerland). Protein concentrations were measured by BCA (Pierce Biotechnology, Rockford, Ill., United States). […] On the same blot, β-actin (Sigma, St. Louis, Mo., United States) was probed to ensure equal loading.

[2] = test system: β-catenin-responsive TCF reporter (Wnt pathway) in RKO cells; experiment: β-catenin-responsive TCF reporter assay; type: cell-based, human; conditions: 700 μM SPT for 24 hours
Description: The panels of FIG. 6. […] Error bars indicate standard deviation from the average of three experiments. FIG. 6(B) provides the results obtained from experiments in which RKO cells were transfected with 500 ng of pGL3-OT, a TCF-LEF-responsive reporter, or pGL3-OF, a negative control with a mutated TCF-LEF binding site in combination with 10 ng of pRL-CMV vector. Twenty-four hours post-transfection, cells were treated with either vehicle (DMSO) control or with 700 μM SPT for 24 hours. Firefly luciferase activity was measured and normalized to the Renilla luciferase activities. The experiments shown in FIG. 6(C) were performed as described in FIG. 6(A), in which pooled populations of MDA-MB-231 cells stably expressing RNAi-2 or RNAi-3 were harvested, protein concentrations were determined, and Western blot analysis was performed. An antibody that specifically recognizes the unphosphorylated (active) form of β-catenin was used, and on the same blot, β-actin was probed to ensure equal loading. […]
Reporter assays were performed as described previously using the β-catenin-responsive TCF reporter and the cyclin D1 reporter. […] According to the manufacturer's instructions, Firefly luciferase activity was measured via a luminometer (BD Biosciences) and normalized to the Renilla luciferase activities by using the Dual Luciferase Reporter System (Promega, Madison, Wis., United States).

[3] = test system: SFRP1 and SFRP2 genes in MCF7 cells; experiment: RT-PCR re-expression of silenced tumor suppressor genes in MCF7 cells; type: cell-based, human; conditions: sirtuin inhibitors, data not shown
Description: as §1, §2

[4] = test system: cyclin-D1 promoter reporter in RKO cells; experiment: β-catenin-responsive cyclin-D1 promoter reporter assay; type: cell-based, human; conditions: SPT treatment, data not shown
Description: Reporter assays were performed as described previously using the β-catenin-responsive TCF reporter and the cyclin D1 reporter. Briefly, prior to transfection, RKO cells were plated in six-well tissue culture dishes and grown until they reached 80%-90% confluence. Cells were transfected with 500 ng of pGL3-OT, a TCF-LEF-responsive reporter, or pGL3-OF, a negative control with a mutated TCF-LEF binding site in combination with 10 ng of pRL-CMV vector. Twenty-four hours post-transfection, cells were treated with either vehicle (DMSO) control or with 700 μM SPT for 24 hours. According to the manufacturer's instructions, Firefly luciferase activity was measured via a luminometer (BD Biosciences) and normalized to the Renilla luciferase activities by using the Dual Luciferase Reporter System (Promega, Madison, Wis., United States).

SIRT1 = molecular target: T1, SIRT1 (Homo sapiens, UniProt Q96EB6); experiment: SIRT1 p53-382 IC50 assay; type: biochemical
T1 sequence (Q96EB6 1-747): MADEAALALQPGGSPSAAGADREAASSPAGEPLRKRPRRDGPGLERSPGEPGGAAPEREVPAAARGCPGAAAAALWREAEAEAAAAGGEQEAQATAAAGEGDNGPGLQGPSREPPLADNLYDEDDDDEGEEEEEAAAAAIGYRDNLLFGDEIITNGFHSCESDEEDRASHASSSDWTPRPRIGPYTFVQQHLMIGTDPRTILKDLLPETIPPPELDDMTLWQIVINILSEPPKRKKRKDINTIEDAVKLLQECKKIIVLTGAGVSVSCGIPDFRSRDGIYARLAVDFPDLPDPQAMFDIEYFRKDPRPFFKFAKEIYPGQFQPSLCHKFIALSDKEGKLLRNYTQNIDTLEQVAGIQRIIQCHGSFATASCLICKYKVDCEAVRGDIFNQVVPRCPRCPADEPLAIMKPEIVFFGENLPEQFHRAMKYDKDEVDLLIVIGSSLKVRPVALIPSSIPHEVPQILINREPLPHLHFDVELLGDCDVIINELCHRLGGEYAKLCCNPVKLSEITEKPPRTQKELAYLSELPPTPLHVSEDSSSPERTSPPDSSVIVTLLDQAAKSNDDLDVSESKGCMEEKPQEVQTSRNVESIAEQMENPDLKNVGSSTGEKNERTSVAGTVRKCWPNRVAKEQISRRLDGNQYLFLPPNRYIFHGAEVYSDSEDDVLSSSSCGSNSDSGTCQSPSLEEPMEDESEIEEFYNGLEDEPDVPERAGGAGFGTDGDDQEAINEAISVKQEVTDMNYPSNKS

| Compound | re-expression of the gene panel, single agent at low dose ([1]; Aza (50 nM) or SPT (50 μM) alone) | re-expression of epigenetically silenced, hypermethylated TSGs incl. CRBP1 ([1]; MDA-MB-231 cells, 15 mM NIA or 300 μM SPT for 21 hours) | reduction in the activation of a β-catenin-responsive TCF reporter construct [2] | re-expression of epigenetically silenced, hypermethylated TSGs [3] | reduction in the activation of a β-catenin-responsive cyclin-D1 promoter reporter construct [4] | pIC50 (SIRT1) |
| --- | --- | --- | --- | --- | --- | --- |
| O=C1CCc2c(ccc3ccccc23)O1 [SPT, splitomicin, reference compound] | ineffective as single agents | could cause the re-expression | 50% | could cause the re-expression | 50% | – |
| O=C(NO)C1CCCc2c1[nH]c1ccc(Cl)cc21 (stereo not drawn) [Compound 7, 6-Chloro-2,3,4,9-tetrahydro-1H-carbazole-1-carboxylic acid hydroxyamide] | – | – | – | – | – | < 5.00 |
